Tests used:
[1] = target: Cyclin-dependent kinase 4/cyclin D1 (Homo sapiens, UniProt P11802); test: Inhibitory concentration against human Cyclin D1-cyclin-dependent kinase 4 was observed; assay type: protein-complex assay
[2] = target: Cyclin-dependent kinase 1/cyclin B (Homo sapiens, UniProt P06493); test: Inhibitory concentration against human Cyclin B-cyclin-dependent kinase 1 was observed; assay type: protein-complex assay
[3] = target: Cyclin-dependent kinase 2/cyclin E (Homo sapiens, UniProt P24941); test: Inhibitory concentration against human Cyclin E-cyclin-dependent kinase 2 was observed; assay type: protein-complex assay
HCT-116 = test: Inhibitory concentration against proliferation of human HCT116 cells was observed by MTT assay; assay type: functional, cell-based

Chain of Cyclin-dependent kinase 4/cyclin D1 (P11802 whole entry): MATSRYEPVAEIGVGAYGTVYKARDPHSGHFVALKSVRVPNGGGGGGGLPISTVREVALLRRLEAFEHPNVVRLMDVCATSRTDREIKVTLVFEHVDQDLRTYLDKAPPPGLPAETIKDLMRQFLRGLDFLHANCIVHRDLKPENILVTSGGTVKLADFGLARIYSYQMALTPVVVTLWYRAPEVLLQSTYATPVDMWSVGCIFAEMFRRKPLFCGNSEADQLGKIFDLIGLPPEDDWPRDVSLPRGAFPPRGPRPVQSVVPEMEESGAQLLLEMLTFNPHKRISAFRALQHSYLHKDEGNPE
Chain of Cyclin-dependent kinase 4/cyclin D1 (P24385 whole entry, further chain): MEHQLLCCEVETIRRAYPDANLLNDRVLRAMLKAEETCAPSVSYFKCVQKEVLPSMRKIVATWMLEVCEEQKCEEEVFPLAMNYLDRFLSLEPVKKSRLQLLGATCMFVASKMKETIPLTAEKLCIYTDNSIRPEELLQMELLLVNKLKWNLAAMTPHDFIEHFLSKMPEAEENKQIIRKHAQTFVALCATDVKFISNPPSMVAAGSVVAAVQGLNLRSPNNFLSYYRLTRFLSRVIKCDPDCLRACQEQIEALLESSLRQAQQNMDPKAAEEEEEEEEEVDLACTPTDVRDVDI

**Q.** Which IC50 [1] does the source give for CN(C)S(=O)(=O)c1ccc(Nc2cn3cc(C(=O)c4c(Cl)cccc4Cl)ccc3n2)cc1 here?
**A.** Its IC50 is 2.16 µM.

**Q.** What about the IC50 [2] of the same compound?
**A.** Its IC50 is 970 nM.

**Q.** What about the IC50 [3] of the same compound?
**A.** Its IC50 is 1540 nM.

**Q.** How did the IC50 [1] turn out when CN(C)S(=O)(=O)c1cccc(Nc2cn3cc(C(=O)c4c(Cl)cccc4Cl)ccc3n2)c1 was run?
**A.** The IC50 was over 20 µM.

**Q.** What about the IC50 [2] of the same compound?
**A.** Its IC50 is 9260 nM.

**Q.** What about the IC50 [3] of the same compound?
**A.** The IC50 was 12100 nM.

**Q.** Which results are given for CS(=O)(=O)c1ccc(Nc2cn3cc(C(=O)c4c(Cl)cccc4Cl)ccc3n2)cc1?
**A.** IC50 [1]: 1.22 µM; IC50 [2]: 520 nM; IC50 [3]: 1210 nM

**Q.** For O=C(NS(=O)(=O)c1ccc(Nc2cn3cc(C(=O)c4c(Cl)cccc4Cl)ccc3n2)cc1)c1ccccc1, which IC50 [1] is on record?
**A.** The IC50 was 3.84 µM.

**Q.** What about the IC50 [2] of the same compound?
**A.** The IC50 was 250 nM.

**Q.** And the IC50 [3]?
**A.** Its IC50 is 670 nM.

**Q.** O=C(O)c1ccc(Nc2cn3cc(C(=O)c4c(Cl)cccc4Cl)ccc3n2)cc1 was tested. Which IC50 [1] did it give?
**A.** Its IC50 is 4.99 µM.

**Q.** What about the IC50 [2] of the same compound?
**A.** The IC50 was 450 nM.

**Q.** And the IC50 [3]?
**A.** Its IC50 is 740 nM.

**Q.** Which results are given for N=C(N)NS(=O)(=O)c1ccc(Nc2cn3cc(C(=O)c4c(Cl)cccc4Cl)ccc3n2)cc1?
**A.** IC50 [1]: 1.29 µM; IC50 [2]: 160 nM; IC50 [3]: 250 nM

**Q.** How did the IC50 [1] turn out when CS(=O)(=O)c1cccc(Nc2cn3cc(C(=O)c4c(Cl)cccc4Cl)ccc3n2)c1 was run?
**A.** Its IC50 is 3.14 µM.

**Q.** What about the IC50 [2] of the same compound?
**A.** The IC50 was 1700 nM.

**Q.** What about the IC50 [3] of the same compound?
**A.** The IC50 was 2860 nM.

**Q.** What does the source list for NC(=O)c1cccc(Nc2cn3cc(C(=O)c4c(Cl)cccc4Cl)ccc3n2)c1?
**A.** IC50 [1]: 3.95 µM; IC50 [2]: 1920 nM; IC50 [3]: 2720 nM

**Q.** What does the source list for NS(=O)(=O)c1ccc(Nc2cn3cc(C(=O)c4c(Cl)cccc4Cl)ccc3n2)cc1?
**A.** IC50 [1]: 1.34 µM; IC50 [2]: 390 nM; IC50 (HCT-116): 5.5 µM

**Q.** How did the IC50 [1] turn out when CSc1ccc(Nc2cn3cc(C(=O)c4c(Cl)cccc4Cl)ccc3n2)cc1 was run?
**A.** The IC50 was 7.4 µM.

**Q.** What about the IC50 [2] of the same compound?
**A.** The IC50 was 3040 nM.

**Q.** And the IC50 [3]?
**A.** The IC50 was 13800 nM.

**Q.** What does the source list for O=C(c1ccc2nc(Nc3ccncc3)cn2c1)c1c(Cl)cccc1Cl?
**A.** IC50 [1]: > 20 µM; IC50 [2]: > 20000 nM; IC50 [3]: > 20000 nM

**Q.** O=C(c1ccc2nc(Nc3ccc(Oc4ccccc4)cc3)cn2c1)c1c(Cl)cccc1Cl was tested. Which IC50 [1] did it give?
**A.** The IC50 was over 20 µM.

**Q.** What about the IC50 [2] of the same compound?
**A.** Its IC50 is over 20000 nM.

**Q.** What about the IC50 [3] of the same compound?
**A.** The IC50 was over 20000 nM.

**Q.** For CSc1cccc(Nc2cn3cc(C(=O)c4c(Cl)cccc4Cl)ccc3n2)c1, which IC50 [1] is on record?
**A.** The IC50 was 11.9 µM.

**Q.** And the IC50 [2]?
**A.** Its IC50 is 4800 nM.

**Q.** What about the IC50 [3] of the same compound?
**A.** The IC50 was 17700 nM.

**Q.** Which IC50 [1] does the source give for NC(=O)c1ccc(Nc2cn3cc(C(=O)c4c(Cl)cccc4Cl)ccc3n2)cc1 here?
**A.** Its IC50 is 1.61 µM.

**Q.** What about the IC50 [2] of the same compound?
**A.** Its IC50 is 580 nM.

**Q.** What about the IC50 [3] of the same compound?
**A.** The IC50 was 1630 nM.

From ChEMBL document CHEMBL1143514 (Bioorg Med Chem Lett, 2005)
